# Results as given in PMC5264272 (EBioMedicine, 2016).
# How the values were obtained:
# [1] = system: murine Treg cells; experiment: Treg suppression assay with Tregs pre-treated in vitro; type: cell-based; settings: 10 μM, 2 h pre-treatment of Tregs, washing, 3-day suppression assay
# [2] = system: human multiple myeloma cells; settings: immunodeficient mice; ref Chauhan et al., 2012; cited from earlier work
smiles,measurement,setting,value
CC(=O)c1cc([N+](=O)[O-])c(Sc2cccc(Cl)c2Cl)s1 [P5091],effect on murine Treg function in vitro,[1],almost completely abrogated Treg function
same,growth of human multiple myeloma cells as xenografts,[2],direct effects on the growth
